One series has as its system LNCap cell line. Briefly: Anti-proliferative SRB assay, LNCap. The format is cell-based. To be noted: Homo sapiens, PSMA +, Table S3, ± SD. How it is done:
(§1) Half-maximal growth inhibitory concentrations (GI50) were determined using sulforhodamine B (SRB) assay as described elsewhere. In brief, cells were seeded in 96-wells at respective cell densities determined by their cell growth curves. After 24 h, the cells were treated in six replicates with medium or different concentrations of CHKA inhibitors in medium and incubated for another 72 h. On completion of incubation, the cells were fixed with 10% trichloroacetic acid (TCA) and stained with 0.4% SRB in 1% acetic acid. The stained protein was solubilized with 10 mM Tris base and optical density values were measured at 540 nm using a Multiskan® EX Micro plate photometer (Thermo Scientific, Loughborough, UK). Growth inhibition curves were plotted as percentage of the control groups and GI50 data were determined by least squares fitting method using GraphPad Prism 7.0. All the chemicals used in this experiment were obtained from Sigma-Aldrich (Gillingham, UK).

A further series deals with R1AD1 cell line. Nature of the series: Anti-proliferative SRB assay, R1AD1. To be noted: Homo sapiens; R1AD1, PSMA −; Table S3, ± SD. The series is classed as cell-based. The protocol: as §1
A general note: The SRB assay estimates cell density from bound dye.

For the next series, the system named is R1-D567 cell line. Briefly: Anti-proliferative SRB assay, R1-D567. The series is classed as cell-based. To be noted: Homo sapiens; R1-D567, PSMA −; Table S3, ± SD. How it is done: as §1
The test system of a further series is PC3 cell line. Briefly: Anti-proliferative SRB assay, PC3. The format is cell-based. Particulars: Homo sapiens, PC-3; PC3, PSMA −; Table S3, ± SD. How it is done: as §1
The next series has as its target SPHK1 (Homo sapiens, UniProt Q9NYA1). Briefly: Lipid kinase screening (ADP-Glo), SPHK1. The format is biochemical. The protocol: (§2) The lipid kinase screening for ICL-CCIC-0019, CK14, CK145 (5), CK146 (4) and CK147 (8) (testing concentration for all compounds: 10 μM) was performed by MRC PPU International Centre for Kinase Profiling (Dundee, UK). The lipid kinase screening panel includes 15 human recombinant lipid kinases and the tests used Promega ADP Glo^TM High Throughput Assay kit (Promega, Southampton, UK). For each assay, reference compounds were used as quality control. Finally, mean percentage activity inhibited by compounds and standard deviation for all the repeats were calculated.

The target in the next series is T1, SPHK2 (Homo sapiens, UniProt Q9NRA0).
T1 sequence (Q9NRA0 1-654): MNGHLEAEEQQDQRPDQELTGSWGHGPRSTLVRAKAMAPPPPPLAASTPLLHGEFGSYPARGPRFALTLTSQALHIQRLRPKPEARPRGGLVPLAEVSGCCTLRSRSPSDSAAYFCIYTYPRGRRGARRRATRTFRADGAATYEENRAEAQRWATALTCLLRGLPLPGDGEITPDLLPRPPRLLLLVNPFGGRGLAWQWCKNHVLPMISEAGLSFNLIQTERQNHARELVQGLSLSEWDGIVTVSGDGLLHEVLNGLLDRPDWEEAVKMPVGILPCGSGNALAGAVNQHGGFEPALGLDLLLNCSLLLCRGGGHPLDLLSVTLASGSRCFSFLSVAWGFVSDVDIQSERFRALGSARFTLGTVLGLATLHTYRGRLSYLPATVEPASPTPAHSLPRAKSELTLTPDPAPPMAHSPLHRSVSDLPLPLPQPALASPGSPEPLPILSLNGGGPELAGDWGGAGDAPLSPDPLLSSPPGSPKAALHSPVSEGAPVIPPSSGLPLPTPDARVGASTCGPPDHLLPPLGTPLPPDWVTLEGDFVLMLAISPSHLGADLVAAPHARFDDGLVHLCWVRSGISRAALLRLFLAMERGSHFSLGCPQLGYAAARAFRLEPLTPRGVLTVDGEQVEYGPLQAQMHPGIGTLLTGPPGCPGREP
Nature of the series: Lipid kinase screening (ADP-Glo), SPHK2. The series is classed as biochemical. How it is done: as §2

In series [1] the target is phosphatidylinositol 4-kinase beta (PIK4CB) (Homo sapiens, UniProt Q9UBF8). Nature of the series: Lipid kinase screening (ADP-Glo), PIK4CB. The series is classed as biochemical. The protocol: as §2
Background: ADP-Glo first removes unused ATP, then detects ADP through luciferase.

For the next series, the target named is DGK z (Homo sapiens, UniProt Q13574). Nature of the series: Lipid kinase screening (ADP-Glo), DGK z. The series is classed as biochemical. How it is done: as §2
Series [2] in a line: Human microsomal metabolic stability assay. The series is classed as in vitro ADME. To be noted: for Predicted in vivo clearance: scaled from microsomal clearance (liver weight, microsomes per liver, liver blood flow); for Predicted in vivo clearance / PCT_LBF % (percentage of compound removed compared to liver blood flow) / microsomal CLint / half-life: human; for microsomal CLint / half-life: human liver microsome S9, human liver microsome S9; for microsomal CLint: read-out: Human Microsomal Metabolic Stability: Clint; for half-life: read-out: Human Microsomal Metabolic Stability: Half-life. How it is done:
The ADME study for ICL-CCIC-0019, CK14, CK145 (5), CK146 (4) and CK147 (8) was performed by Charles River Drug Discovery Services (Essex, UK).
The predicted in vitro pharmacokinetic characteristics of compounds were evaluated by four ADME assays, namely kinetic solubility assay, metabolic stability assay using human liver microsome S9, permeability and efflux study using the Caco-2 cell line, and matrix stability assay using fasted state simulated gastric fluid (FaSSGF). All tested CHKA inhibitors were highly soluble (>150 μM) in 0.1 M PBS (2% DMSO) (Table 1). […] The in vivo clearance was calculated to predict the actual clearance in humans by scaling the clearance values, which takes into account liver weight, microsomes per liver and liver blood flow. […] In Caco-2 cell permeability assay, drug permeability was investigated and presented as apparent permeability coefficients (Papp) in A to B (A-B, apical to basolateral direction) and B to A (B-A, basolateral to apical direction).

The test system of series [3] is [18F]D4-FCH uptake in C4-2B cells. Briefly: [18F]D4-FCH uptake in vitro study, C4-2B. The series is classed as cell-based. Particulars: Homo sapiens, 1 μM, read-out: inhibition of [18F]D4-FCH uptake (mean of CK14, CK145 and CK146). The protocol: HCT-116 and C4-2B cells were seeded at a density of 5 × 10^5 cells per well into 6-well plates and incubated overnight. Cells were treated with 1 or 10 µM CHKA inhibitors (CK14, CK145, CK146 and CK147) for 1 h and pulsed with [^18F]D4-FCH (740 kBq) in presence of inhibitors in 1 mL for an additional hour at 37 °C. Cells were washed with ice-cold PBS three times and lysed in 1 mL RIPA buffer. The radioactivity of 800 µL lysate from each well was counted on a gamma counter (Perkin Elmer, Beaconsfield, UK) and normalized to protein content as determined by BCA assay.

The subject of series [4] is eight cell lines (22Rv1, C4-2B, LNCap, PC3, PNT1A, R1-AD1, R1-D567, HCT-116). Briefly: Anti-proliferative SRB assay, mean across eight cell lines. The series is classed as cell-based. Particulars: Homo sapiens. The protocol: as §1
Series [5] deals with C4-2B prostate cancer cells. Briefly: Cellular uptake and metabolism study in C4-2B with or without serum (HPLC). Particulars: 50 μM, 4 h; for mean cellular uptake: mean of ICL-CCIC-0019 and CK146; for detection in cell lysates by HPLC (in words): both FCS groups.
Description: Cell lysate sample preparation: C4-2B prostate cancer cells were seeded into cell culture dishes (150 × 25 mm) at a density of 7 × 10^6 per dish. The cells were allowed to settle and grow for another 48 h. The cells were treated with ICL-CCIC-0019, CK146, CK147 and CK148 (50 μM of 7 mL RPMI medium with or without 10% FCS) for 4 h in the incubator. After 4-h incubation, the aliquots of medium were collected (see the medium sample preparation section). Cells were scraped, washed with ice-cold PBS three times and collected by centrifugation (4 °C, 4000× g). The cell pellets were resuspended in 500 μL of chilled acetonitrile:PBS (50:50, v/v) for cell disruption and homogenization. The cell disruption was performed by a Precellys® 24 homogenizer (Bertin Technologies, Montigny-le-Bretonneux, France) at 4 °C. After acetonitrile evaporation at room temperature, 50 μL of cell lysis was taken for protein analysis. Another 100 μL of the supernatant obtained after centrifuge (4 °C, 15,000× g) was resuspended in 100 μL formic acid:water (0.2%, v/v). Next, 100 μL of the filtered solution was analyzed by HPLC system described in Supplementary HPLC method D. Three injections were performed for each sample. Intracellular drug was normalized to cellular protein of each plate using BCA assay. Medium sample preparation for HPLC analysis: 250-μL aliquots of medium (with or without 10% FCS) were transferred into 1.5-mL tube containing 250 μL acetonitrile. After a brief vortex, the tube was placed at 4 °C for 30 min for protein precipitation. One hundred microliters of the resulting supernatant from centrifuge (4 °C, 15,000× g) were resuspended in 100 μL formic acid: water (0.2%, v/v). One hundred microliters of the filtered sample were analyzed by HPLC system described in Supplementary HPLC method D. Three injections were performed for each sample.

This is an account of results in article PMC8309005, “Novel Non-Congeneric Derivatives of the Choline Kinase Alpha Inhibitor ICL-CCIC-0019” (Pharmaceutics, 2021).

As usually defined, the GI50 is the concentration giving 50% growth inhibition. As a reminder, the inhibition is the change of the read-out against control, counted positive when it falls. A word on the microsomal CLint: it is the capacity of the preparation to metabolise the compound, expressed as a volume cleared per time. As usually defined, the half-life is the time in which the quantity being followed falls by half.

Chain of phosphatidylinositol 4-kinase beta (PIK4CB) (Q9UBF8 whole entry): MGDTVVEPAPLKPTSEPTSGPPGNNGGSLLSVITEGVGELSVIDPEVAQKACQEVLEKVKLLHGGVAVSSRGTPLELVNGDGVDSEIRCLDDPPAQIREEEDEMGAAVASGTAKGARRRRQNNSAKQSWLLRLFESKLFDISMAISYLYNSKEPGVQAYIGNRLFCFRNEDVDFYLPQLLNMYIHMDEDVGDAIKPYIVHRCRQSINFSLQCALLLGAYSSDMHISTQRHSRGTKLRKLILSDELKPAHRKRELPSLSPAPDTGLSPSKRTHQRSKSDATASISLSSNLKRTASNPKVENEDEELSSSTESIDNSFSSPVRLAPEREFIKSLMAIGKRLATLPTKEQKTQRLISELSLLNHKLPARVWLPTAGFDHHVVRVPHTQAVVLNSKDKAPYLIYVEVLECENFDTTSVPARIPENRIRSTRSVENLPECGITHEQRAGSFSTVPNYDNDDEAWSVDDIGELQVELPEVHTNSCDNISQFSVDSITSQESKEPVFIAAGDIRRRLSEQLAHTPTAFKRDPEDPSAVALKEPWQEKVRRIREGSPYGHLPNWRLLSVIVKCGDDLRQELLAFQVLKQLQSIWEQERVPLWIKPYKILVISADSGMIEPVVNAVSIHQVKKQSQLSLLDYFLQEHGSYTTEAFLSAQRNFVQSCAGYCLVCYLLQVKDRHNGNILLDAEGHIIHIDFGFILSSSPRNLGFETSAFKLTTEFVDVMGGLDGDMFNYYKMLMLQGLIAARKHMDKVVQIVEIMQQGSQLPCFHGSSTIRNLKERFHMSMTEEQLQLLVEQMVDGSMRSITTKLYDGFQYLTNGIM
Chain of SPHK1 (Q9NYA1 whole entry): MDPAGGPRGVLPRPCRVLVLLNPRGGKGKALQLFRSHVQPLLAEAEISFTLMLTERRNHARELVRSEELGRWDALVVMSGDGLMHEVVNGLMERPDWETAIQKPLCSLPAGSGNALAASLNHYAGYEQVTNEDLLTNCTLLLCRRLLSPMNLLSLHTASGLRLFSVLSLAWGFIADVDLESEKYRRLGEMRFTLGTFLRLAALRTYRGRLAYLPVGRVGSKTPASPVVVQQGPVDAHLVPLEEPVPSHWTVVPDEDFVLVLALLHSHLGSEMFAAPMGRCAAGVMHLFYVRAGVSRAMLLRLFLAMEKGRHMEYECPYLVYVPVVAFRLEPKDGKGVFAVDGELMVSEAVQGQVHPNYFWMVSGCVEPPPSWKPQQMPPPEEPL
Chain of DGK z (Q13574 whole entry): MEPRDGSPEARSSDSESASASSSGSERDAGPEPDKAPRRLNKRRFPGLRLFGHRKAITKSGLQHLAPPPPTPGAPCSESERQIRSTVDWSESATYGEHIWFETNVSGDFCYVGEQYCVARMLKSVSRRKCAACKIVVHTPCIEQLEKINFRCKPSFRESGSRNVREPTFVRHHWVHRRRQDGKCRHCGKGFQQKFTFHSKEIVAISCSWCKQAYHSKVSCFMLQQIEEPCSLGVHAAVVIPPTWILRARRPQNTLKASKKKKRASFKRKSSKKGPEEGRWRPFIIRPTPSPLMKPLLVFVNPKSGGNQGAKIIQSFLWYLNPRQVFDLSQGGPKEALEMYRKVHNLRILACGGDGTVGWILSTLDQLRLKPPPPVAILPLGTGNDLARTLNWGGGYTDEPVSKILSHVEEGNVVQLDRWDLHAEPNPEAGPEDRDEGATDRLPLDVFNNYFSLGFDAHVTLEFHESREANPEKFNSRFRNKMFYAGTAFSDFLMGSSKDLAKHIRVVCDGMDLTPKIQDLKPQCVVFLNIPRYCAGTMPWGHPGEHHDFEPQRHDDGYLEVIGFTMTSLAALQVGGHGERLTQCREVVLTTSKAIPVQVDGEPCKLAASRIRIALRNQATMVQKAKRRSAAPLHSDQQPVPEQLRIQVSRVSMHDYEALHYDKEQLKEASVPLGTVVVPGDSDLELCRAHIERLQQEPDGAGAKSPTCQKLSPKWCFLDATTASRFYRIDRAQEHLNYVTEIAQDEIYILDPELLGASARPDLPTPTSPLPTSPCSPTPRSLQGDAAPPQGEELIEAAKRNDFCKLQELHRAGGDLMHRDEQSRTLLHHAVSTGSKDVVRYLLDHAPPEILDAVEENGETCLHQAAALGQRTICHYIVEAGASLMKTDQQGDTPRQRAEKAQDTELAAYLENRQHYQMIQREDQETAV

`CC(=O)NCCCCC(NC(=O)OC(C)(C)C)C(=O)N1CCN(c2cc[n+](CCCCCCCCCCCCCC[n+]3ccc(N(C)C)cc3)cc2)CC1` (stereo not drawn) [CK145]: the concentration for 50% growth inhibition (GI50) in the series with LNCap cell line was found to be 39000 ± 8560 nM; in the series on R1AD1 cell line, 53400 ± 2270 nM; with R1-D567 cell line it was 40400 ± 4560 nM; with PC3 cell line, 84900 ± 7030 nM. Besides, the inhibition at 10 µM on SPHK1 was 0.6%; at SPHK2, 13.2%; in [1], 51%; on DGK z, 11.6%. Further, the “% Inhibition PIK4CB” value in series [1] (10 μM) is recorded as 50.6%. Also, the “Human Microsomal Metabolic Stability: Remaining %” value in series [2] (human liver microsome S9) was determined as 2%. For the same compound, the “metabolic stability (in words)” value in series [2] (human liver microsome S9) is “Rapid decomposition”. For the same compound, the “Predicted in vivo clearance” value in series [2] is on record as 19 mL/min/kg. Besides, the inhibition at 1 µM in series [3] came out at 46 ± 1%.

As to `CN(C)c1cc[n+](CCCCCCCCCCCCCC[n+]2ccc(N3CCNCC3)cc2)cc1` [CK146], the 50% growth inhibitory concentration (GI50) with LNCap cell line came out at 1920 ± 990 nM; in the series on R1AD1 cell line, 5670 ± 2330 nM; in the series on R1-D567 cell line, 870 ± 30 nM; with PC3 cell line it was 4730 ± 810 nM; in series [4] it was 3800 ± 900 nM. The inhibition at 10 µM against SPHK1 was 2.1%; against SPHK2, 10%; in [1], 47%; on DGK z, 8.6%. In addition, the “PCT_LBF % (percentage of compound removed compared to liver blood flow)” value in [2] is less than 45%. Moreover, in series [2] (human liver microsome S9), the “Human Microsomal Metabolic Stability: Remaining %” value was determined as 127%. The intrinsic metabolic clearance (microsomal CLint) in series [2] is less than 14 µL/min/mg. In series [2], the half-life was more than 1.67 h. Also, the “Predicted in vivo clearance” value in series [2] is reported as less than 10 mL/min/kg. The inhibition at 1 µM in series [3] was found to be 46 ± 1%. The values for the mean cellular uptake in [5] (FCS negative group) and in [5] (FCS positive group (10% FCS)) were 34.1 ± 0.6 % μg^−1 protein and 24.9 ± 1.4 % μg^−1 protein, respectively. Besides, in series [5], the “detection in cell lysates by HPLC (in words)” value is reported as “detected”.

Turning to `CN(C)c1cc[n+](CCCCCCCCCCCC[n+]2ccc(N(C)C)cc2)cc1` [ICL-CCIC-0019], the 50% growth inhibitory concentration (GI50) with LNCap cell line was 300 ± 60 nM; in the series with R1AD1 cell line, 400 ± 10 nM; in the series on R1-D567 cell line, 320 nM; with PC3 cell line it was 790 ± 30 nM; in series [4] it was 600 ± 100 nM. For the same compound, the inhibition at 10 µM at SPHK1 was -3.7%; against SPHK2, 22.4%; in [1], -24.1%; on DGK z, 7.5%. Besides, in series [2], the “PCT_LBF % (percentage of compound removed compared to liver blood flow)” value is less than 45%. In addition, in series [2] (human liver microsome S9), the “Human Microsomal Metabolic Stability: Remaining %” value was 92%. Moreover, the intrinsic metabolic clearance (microsomal CLint) in series [2] was less than 14 µL/min/mg. In addition, the half-life in [2] is more than 1.67 h. In series [2], the “Predicted in vivo clearance” value is recorded as less than 10 mL/min/kg. Further, the mean cellular uptake in [5] (FCS negative group) is given as 34.1 ± 0.6 % μg^−1 protein; in [5] (FCS positive group (10% FCS)), 24.9 ± 1.4 % μg^−1 protein. Besides, the “detection in cell lysates by HPLC (in words)” value in series [5] was “detected”.
